Data set [1] concerns Ercc1−/Δ mice. As to the kind of experiment: Signs of aging in progeroid Ercc1−/Δ mice. The class given is in vivo, mouse. The conditions noted are these: 2 mg/kg ip three times per week. The method, then:
To assess the effectiveness of XJB-5-131 in inhibiting degeneration and/or signs of aging, the compound was administered, over an 18-21 week period, progeroid
Ercc1^−/Δ mice, at a dose of 2 mg/kg in sunflower oil carrier (to promote solubility) administered intraperitoneally three times per week (FIG. 32). Sunflower seed oil was administered to twin Ercc1^−/Δ mice according to the same schedule as a control. The treated and control mice were monitored twice a week for weight and symptom/sign development.
FIG. 33 presents a summary table showing the results of the treatment with XJB-5-131 (“XJB” in this Figure), relative to control (sunflower seed oil) after treatment from 5 wks of life until death. The numbers indicate the average age at onset of each age-related symptom for mice treated with XJB-5-131 or vehicle only (oil) (n=5 mice per group). […] Of note, all of the signs of neurodegeneration, including dystonia, trembling, ataxia, wasting and urinary incontinence were delayed in the treated animals, providing strong evidence that XJB-5-131 protects neurons against degenerative changes caused by oxidative stress.
To assess the ability of XJB-5-131 to inhibit deterioration of intervertebral discs (an index of degenerative disease of the vertebra), the level of glycosaminoglycan in the discs in treated and control mice were measured, and the results are shown in FIG. 34. The intervertebral discs of treated mice contained approximately 30 percent more glycosaminoglycan relative to control mice, indicating inhibition of disc degeneration.

Data set [2] has as its system rat ileal mucosa. As to the kind of experiment: Peroxidation of phospholipids in intestinal mucosa after hemorrhagic shock. The format is in vivo. The conditions noted are these: 10 μM intraluminal, 2 h HS. The text has this:
Assay for peroxidation of phospholipids. Gut mucosal samples were homogenized. Lipids were extracted from homogenates using the Folch procedure, see M. Lees and G. H. Sloan-Stanley, A simple method for isolation and purification of total lipids from animal tissue, J. BIOL. CHEM. 226:497-509 (1957), and resolved by 2D HPTLC (High Performance Thin Layer Chromatography) as previously described, see Kagan, V. E. et al., A role for oxidative stress in apoptosis: Oxidation and externalization of phosphatidylserine is required for macrophage clearance of cell undergoing Fas-mediated apoptosis, J Immunol, 2002, 169:487-489. Spots of phospholipids'were scraped from HPTLC plates and phospholipids were extracted from silica. Lipid phosphorus was determined by a micro-method, see Bottcher, C. J. F. et al., A rapid and sensitive sub-micro phosphorus determination, Anal Chim Acta. 1961, 24: 203-204.
Oxidized phospholipids were hydrolyzed by pancreatic phospholipase A2 (2 U/μl) in 25 mM phosphate buffer containing 1 mM CaCl2, 0.5 mM EDTA and 0.5 mM sodium dodecyl sulfate (SDS) (pH 8.0, at room temperature for 30 min). Fatty acid hydroperoxides formed were determined by fluorescence HPLC of resorufin stoichiometrically formed during their microperoxidase 11-catalized reduction in presence of Amplex Red (for 40 min at 4° C.) (8). Fluorescence HPLC (Eclipse XDB-C18 column, 5 μm, 150×4.6 mm, mobile phase was composed of 25 mM disodium phosphate buffer (pH 7.0)/methanol (60:40 v/v); excitation wavelength 560 nm, emission wavelength 590 nm) was performed on a Shimadzu LC-100AT HPLC system equipped with fluorescence detector (RF-10Axl) and autosampler (SIL-10AD).
In the subsequent series of in vivo studies, the affect of intraluminal XJB-5-131 on hemorrhage-induced peroxidation of phospholipids in intestinal mucosa was examined. […] In a preferred embodiment, 0.3 mL of test solution filled the lumen of each ileal compartment.
After two hours of HS, samples of ileal mucosa from the gut sacs filled with the vehicle and XJB-5-131 were obtained and compared with ileal mucosa of normal MECs. […]

Data set [3] has as its system Ercc1−/cond; K14-Cre mice. Nature of the data set: Photoaging after UV-B in Ercc1−/cond; K14-Cre mice. The format is in vivo, mouse. The settings on record: 80 ug in cream daily for five days. The method, then: As a measure of the effect of XJB-5-131 on photoaging, Ercc1^−/cond; K14-Cre mice, which are missing ERCC1 only in the skin, were shaved, treated with a depilatory then irradiated with UV-B light to induce a sunburn (500 J/m^2, the median erythemal dose). Subsequently, the mice were treated with XJB-5-131 (80 ug) emulsified in a cream daily for five days.

In data set [4] the test system is MEF cells from Ercc1−/− mouse embryos. Nature of the data set: Toxicity of JP4-039 in Ercc1−/− MEF cultures. The class given is cell-based. The conditions noted are these: up to 10 μM. The method, then:
To assess the therapeutic potential of JP4-039, tests for safety and protective activity were performed. FIGS. 35 and 36 show the results of tests to evaluate whether varying concentrations of JP4-039 produce toxic effects after 48 hours in cultures of MEF cells prepared from Ercc1^−/− or wild-type mouse embryos, respectively.

Entries after “also recorded” stand apart in the source; their conditions may differ.

Consider `CC(C)C[C@@H](/C=C/[C@H](Cc1ccccc1)C(=O)N1CCC[C@H]1C(=O)N[C@H](C(=O)N[C@@H](CCCNC(=O)OCc1ccccc1)C(=O)NC1CC(C)(C)N([O])C(C)(C)C1)C(C)C)NC(=O)OC(C)(C)C` [XJB-5-131], for which, in data set [1], the body weight entry is reported as “did not lose weight; also recorded: does not cause weight loss”; the “glycosaminoglycan in intervertebral discs relative to control mice” value is listed as “approximately 30 percent more”; the “onset of signs of neurodegeneration (dystonia, trembling, ataxia, wasting, urinary incontinence)” value is given as “delayed”; the overall aging score result is reported as “significantly improved”. Further, in data set [2], the “peroxidation of phosphatidylcholine (PC)” value is “no effect”, the “peroxidation of phosphatidylethanolamine (PE)” value is on record as “small effect” and the “peroxidation of phosphatidylserine (PS)” value is reported as “no effect”. The “appearance of UV-B irradiated skin” value in data set [3] was “much more smooth and healthy”.
Consider `CC(C)C[C@@H](/C=C/CC(=O)NC1CC(C)(C)N([O])C(C)(C)C1)NC(=O)OC(C)(C)C` [JP4-039, TEMPO-4-yl-(S,E)-5-(tert-butoxycarbonylamino)-7-methyloct-3-enamide], for which, in data set [4] (Ercc1−/− or wild-type MEF), the “cellular proliferation relative to untreated control cells” value was “enhanced”. In addition, the toxicity entry in data set [4] (48 hours) is “no signs of toxicity; also recorded: not toxic”.

The record behind these values is patent publication US8822541B2, “Use of targeted nitroxide agents in mitigating or treating radiation injury” (University of Pittsburgh—Of the Commonwealth System of …, priority 2008, dated 2014).
